Source: PubChem BioAssay AID1421 (Emory University Molecular Libraries Screening Center, 2008)

Molecular target: Prostaglandin E2 receptor EP2 subtype (Homo sapiens) (UniProt P43116)
Experiment: compounds shifting PGE2 potency at EP2 – cell-based, human EP2, PGE2 EC50 shift, dose response (AID 1421)
Conditions: EP2-expressing cells, PGE2 EC50 shift by compound; measured here: PGE2 EC50 at 6.7 uM compound

Chain of Prostaglandin E2 receptor EP2 subtype (Homo sapiens) (P43116 whole entry, looked up): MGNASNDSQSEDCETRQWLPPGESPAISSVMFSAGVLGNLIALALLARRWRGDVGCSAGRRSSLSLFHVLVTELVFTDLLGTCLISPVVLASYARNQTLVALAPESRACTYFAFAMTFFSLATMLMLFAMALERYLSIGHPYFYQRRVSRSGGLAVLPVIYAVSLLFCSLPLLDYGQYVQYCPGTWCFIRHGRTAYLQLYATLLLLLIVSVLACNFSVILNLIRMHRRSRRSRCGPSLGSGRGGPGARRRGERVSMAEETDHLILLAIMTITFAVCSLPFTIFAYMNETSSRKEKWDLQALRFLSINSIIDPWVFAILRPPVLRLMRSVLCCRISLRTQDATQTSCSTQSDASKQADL

`C=CCSc1nc2ccccc2c(=O)n1Cc1ccco1` and `CCCCn1c(=O)c2ccccc2c2ccccc2c1=O` are within 1.5-fold of each other in PGE2 EC50 with compound: 0.91 nM for the first, 0.96 nM for the second.

`FC(F)(F)c1nnc(-c2ccccc2)nc1Sc1ccccc1` and `O=C(O)c1ccc(-c2nc(-c3cccc(C(F)(F)F)c3)cs2)cc1` are within 1.5-fold of each other in PGE2 EC50 with compound: 0.91 nM for the first, 1.19 nM for the second.

`CCOC(=O)c1c(N)sc2c1CCC(CC)C2` (stereo not drawn) and `COCC(=O)Nc1sc2c(c1C(=O)OC)CCC(C)C2` (stereo not drawn) are within 1.5-fold of each other in PGE2 EC50 with compound: 1.5 nM for the first, 1.32 nM for the second.

`Cc1ccc(C)n1-n1c(C)nc2scc(-c3cccs3)c2c1=O` and `Cc1ccc(C)n1-n1cnc2scc(-c3cccs3)c2c1=O` are within 1.5-fold of each other in PGE2 EC50 with compound: 1.02 nM for the first, 0.97 nM for the second.

`COC(=O)c1ccccc1NC(=O)c1cnn2c(C(F)F)cc(C3CC3)nc12` and `CCOc1ccccc1C(=O)Nc1ccsc1C(=O)OC` are within 1.5-fold of each other in PGE2 EC50 with compound: 1.17 nM for the first, 1.32 nM for the second.

First: FC(F)(F)c1nc(=S)c2ccccc2[nH]1
Second: O=C(O)c1ccc(-c2ccccc2C(F)(F)F)o1
The PGE2 EC50 with compound of the first is 3.1-fold higher: 2.84 nM for the first, 0.92 nM for the second.

`CCC1(CC)Cc2ccccc2-c2nc(NCCO)[nH]c(=O)c21` and `CCC(Sc1nc(-c2ccccc2)c(C#N)c(=O)[nH]1)C(=O)Nc1cc(C)on1` (stereo not drawn) are within 1.5-fold of each other in PGE2 EC50 with compound: 1.25 nM for the first, 1.38 nM for the second.

`CCOP(=O)(c1ccccc1)c1nc(-c2ccccc2Cl)oc1N1CCCCC1` (stereo not drawn) and `CCOC(=O)C1CCN(c2c(-c3ccccc3)c3cc(Cl)ccc3[nH]c2=O)CC1` are within 1.5-fold of each other in PGE2 EC50 with compound: 1.02 nM for the first, 1.03 nM for the second.

`CCCCCn1c(SCCC(C)C)nc2c1c(=O)[nH]c(=O)n2C` and `CCCCn1c(-c2csc(CCC)c2)n[nH]c1=S` are within 1.5-fold of each other in PGE2 EC50 with compound: 1.21 nM for the first, 1.28 nM for the second.

First: COC(=O)NC1(C(F)(F)F)C(=O)NC(C)=C1C(=O)OC (stereo not drawn)
Second: CCCc1cc(=O)[nH]c(SCC(=O)N2CCC(C(=O)OCC)CC2)n1
The PGE2 EC50 with compound of the first is 1.6-fold higher: 1.02 nM for the first, 0.64 nM for the second.

`Cc1cc(O)c(C=O)c2c1C(=O)Oc1c(COC(=O)/C=C/C(=O)O)c(O)c(C(=O)O)c(C)c1O2` and `CCOC(=O)c1sc2nc3c(SCC(=O)O)cc(C(=O)c4cc(F)ccc4O)cn3c(=O)c2c1C` are within 1.5-fold of each other in PGE2 EC50 with compound: 0.54 nM for the first, 0.6 nM for the second.

`O=c1[nH]ncc2c3ccccc3n(Cc3cccc(Cl)c3)c12` and `Cc1cccc(NCc2nc3ccccc3n2Cc2ccccc2)c1` are within 1.5-fold of each other in PGE2 EC50 with compound: 0.98 nM for the first, 1.13 nM for the second.

First: Cc1ccc(-c2nn(-c3ccccc3)cc2CN(Cc2ccccc2)C(=O)c2ccco2)o1
Second: Cc1onc(-c2ccccc2)c1C(=O)N(Cc1ccco1)Cc1cccs1
The PGE2 EC50 with compound of the first is 2.1-fold higher: 0.7 nM for the first, 0.34 nM for the second.

First: COC(=O)c1cc2occc2n1Cc1cccc(C)c1
Second: Cc1scc(-c2n[nH]c(=S)n2Cc2ccccc2)c1C
The PGE2 EC50 with compound of the first is 3.2-fold lower: 0.79 nM for the first, 2.55 nM for the second.

`Cc1cc(Nc2ccc(Br)cc2)n2nc(C)nc2n1` and `Brc1ccc(-c2ccc(/C=N/Nc3nc(N4CCOCC4)nc(N4CCOCC4)n3)o2)cc1` are within 1.5-fold of each other in PGE2 EC50 with compound: 1.06 nM for the first, 1.01 nM for the second.

First: CCC1C/C(=C/c2ccco2)C(=O)/C(=C/c2ccco2)C1 (stereo not drawn)
Second: Cc1cc(C(=O)NCC(c2ccco2)N(C)C)no1 (stereo not drawn)
The PGE2 EC50 with compound of the first is 2.5-fold lower: 1.02 nM for the first, 2.55 nM for the second.

`CC(=O)Oc1c2c(c3c(c1CC=C(C)C)O[C@]14C(=C[C@@H]5CC1C(C)(C)OC4(C/C=C(\C)C(=O)O)C5=O)C3=O)OC(C)(CCC=C(C)C)C=C2` (stereo partly drawn) and `CCOC(=O)c1c(-c2ccc(C)cc2)csc1NC(=O)CCN1CC(C)OC(C)C1` (stereo not drawn) are within 1.5-fold of each other in PGE2 EC50 with compound: 0.89 nM for the first, 0.68 nM for the second.

Going from `Cc1ccc(S(=O)(=O)N2c3ccccc3OCC2C(C)(C)C)cc1` (stereo not drawn) to `Cc1ccc(-c2cc(C(F)(F)F)nn2-c2ccc(S(N)(=O)=O)cc2)cc1`, the PGE2 EC50 with compound falls from 2.69 nM to 1.28 nM (2.1-fold).

Compared with `CCC1CCc2c(sc3ncnc(N4CCOCC4)c23)C1` (stereo not drawn), `CSc1ncnc2sc(C)c(C)c12` is 1.5-fold higher in PGE2 EC50 with compound: 0.81 nM for the first, 1.22 nM for the second.

First: COc1ccccc1-c1nnc2sc(-c3cc4ccccc4o3)nn12
Second: CC1=CC(C)(C)N(C(=O)c2ccccc2)c2ccccc21
The PGE2 EC50 with compound of the first is 7.5-fold higher: 6.03 nM for the first, 0.8 nM for the second.

Going from `COc1ccc(-n2c(COc3ccc(Cl)cc3)nnc2SCc2ccc(C#N)cc2)cc1` to `Nc1cc(Cl)ccc1Oc1ccc(Cl)cc1`, the PGE2 EC50 with compound falls from 1.22 nM to 0.75 nM (1.6-fold).

`CC(=O)C1CC[C@H]2C3CC[C@H]4C[C@H](O)CC[C@]4(C)C3CC[C@]12C` (stereo partly drawn) and `c1ccc(-c2nn3c(C4CCCCC4)nnc3s2)cc1` are within 1.5-fold of each other in PGE2 EC50 with compound: 0.89 nM for the first, 1.07 nM for the second.

First: CCn1nnc(-c2ccccc2NC(=O)c2cc(OC)cc(OC)c2)n1
Second: COc1cc(C=O)ccc1OC(=O)c1ccc(C(C)C)cc1
The PGE2 EC50 with compound of the first is 1.5-fold lower: 0.95 nM for the first, 1.44 nM for the second.

`CC1=C/C(=C(/c2ccc(O)c(C)c2)c2ccccc2C(=O)O)C=CC1=O` and `Cc1ccc2c3c(cccc13)-c1ccccc1C2=O` are within 1.5-fold of each other in PGE2 EC50 with compound: 0.96 nM for the first, 0.86 nM for the second.

`CCOP(=S)(OCC)Oc1nc(Cl)c(Cl)cc1Cl` and `Cc1oncc1-c1csc(-c2ccccc2Cl)n1` are within 1.5-fold of each other in PGE2 EC50 with compound: 0.91 nM for the first, 1 nM for the second.

`CCc1cc(-c2[nH]ncc2-c2ccc3c(c2)OCO3)c(O)cc1O` and `COc1cc(/C=C2\SC(=S)N(Nc3ncc(C(F)(F)F)cc3Cl)C2=O)ccc1O` are within 1.5-fold of each other in PGE2 EC50 with compound: 1.31 nM for the first, 1.36 nM for the second.

`N#Cc1c(-c2c(Cl)cccc2Cl)noc1/C=C/Nc1ccc(C(=O)O)cc1` and `O=C1CCC(c2ccccc2)=NN1Cc1c(F)cccc1Cl` are within 1.5-fold of each other in PGE2 EC50 with compound: 0.7 nM for the first, 0.9 nM for the second.

First: O=c1c2ccccc2c(-c2ccccc2)nn1Cc1ccccc1
Second: Cc1nc(NC(C)c2ccccc2)c2c3c(sc2n1)CCC3 (stereo not drawn)
The PGE2 EC50 with compound of the first is 3.6-fold higher: 2.8 nM for the first, 0.78 nM for the second.

`N#CC1=C(N)SC(N)=C(C#N)C1c1ccoc1` and `NC(=NCCC[C@H](N)C(=O)O)N[N+](=O)[O-]` are within 1.5-fold of each other in PGE2 EC50 with compound: 2.61 nM for the first, 1.93 nM for the second.
